Data: PubChem BioAssay AID192 (DTP/NCI, 2004)
Values joined by “and” are separate entries in the source; they are usually repeats but may differ in a detail not shown here. Equal values may be shown once. Inconclusive results and toxic doses are left out. Peptide text beside a SMILES is read from it. * marks the point of attachment. Cbz = O=C(OCc1ccccc1)*

Test system: BDF1 mice, B16 melanoma ip, median survival T/C
Assay: NCI In Vivo Anticancer Drug Screen. Data for tumor model B16 Melanoma (intraperitoneal) in B6D2F1 (BDF1) mice
Conditions: endpoint: median survival time, higher = longer survival
In short: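 Each result divides a survival or tumor-size measurement in the compound-treated group by the same measurement in the vehicle group.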

[1] = dose: 25.0 mg/kg/injection, schedule: Q01DX009 (ip), vehicle: saline with Tween-80
[2] = dose: 50.0 mg/kg/injection, schedule: Q01DX009 (ip), vehicle: saline with Tween-80
[3] = dose: 100.0 mg/kg/injection, schedule: Q01DX009 (ip), vehicle: saline with Tween-80
[4] = dose: 200.0 mg/kg/injection, schedule: Q01DX009 (ip), vehicle: saline with Tween-80
[5] = dose: 100.0 mg/kg/injection, schedule: Q01DX009 (ip), vehicle: Klucel (hydroxypropylcellulose) (HPC)
[6] = dose: 200.0 mg/kg/injection, schedule: Q01DX009 (ip), vehicle: Klucel (hydroxypropylcellulose) (HPC)
[7] = dose: 12.5 mg/kg/injection, schedule: Q01DX009 (ip), vehicle: Klucel (hydroxypropylcellulose) (HPC)
[8] = dose: 25.0 mg/kg/injection, schedule: Q01DX009 (ip), vehicle: Klucel (hydroxypropylcellulose) (HPC)
[9] = dose: 50.0 mg/kg/injection, schedule: Q01DX009 (ip), vehicle: Klucel (hydroxypropylcellulose) (HPC)

Compound: [Cl][Pt+2][Cl].[NH-]CC1(C[NH-])CCCCC1
- T/C (dose: 1.5 mg/kg/injection, schedule: Q01DX009 (ip), vehicle: saline): 190 % of control
- T/C (dose: 3.0 mg/kg/injection, schedule: Q01DX009 (ip), vehicle: saline): 208 % of control
- T/C (dose: 6.0 mg/kg/injection, schedule: Q01DX009 (ip), vehicle: saline): 208 % of control

Compound: C[CH2][Ge]1([CH2]C)[CH2]CC2(CCN(CCCN(C)C)C2)C[CH2]1
- T/C (dose: 8.0 mg/kg/injection, schedule: Q02DX009 (ip), vehicle: saline): 102 % of control
- T/C (dose: 16.0 mg/kg/injection, schedule: Q02DX009 (ip), vehicle: saline): 106 % of control
- T/C (dose: 32.0 mg/kg/injection, schedule: Q02DX009 (ip), vehicle: saline): 102 % of control

Compound: COc1ccc2nonc2c1
- T/C [1]: 107 % of control
- T/C [2]: 95 % of control
- T/C [3]: 91 % of control
- T/C [4]: 101 % of control

Compound: CC(=O)Oc1ccc(/C=N/NC(N)=S)nc1
- T/C (dose: 9.4 mg/kg/injection, schedule: Q01DX009 (ip), vehicle: saline with Tween-80): 96 % of control
- T/C (dose: 18.8 mg/kg/injection, schedule: Q01DX009 (ip), vehicle: saline with Tween-80): 106 % of control
- T/C (dose: 37.5 mg/kg/injection, schedule: Q01DX009 (ip), vehicle: saline with Tween-80): 108 % of control
- T/C (dose: 75.0 mg/kg/injection, schedule: Q01DX009 (ip), vehicle: saline with Tween-80): 112 % of control
- T/C (dose: 150.0 mg/kg/injection, schedule: Q01DX009 (ip), vehicle: saline with Tween-80): 108 % of control

Compound: S=C(NC1CCCCC1)NC1CCCCC1
- T/C [3]: 95 % of control
- T/C [4]: 114 % of control
- T/C (dose: 400.0 mg/kg/injection, schedule: Q01DX009 (ip), vehicle: saline with Tween-80): 90 % of control

Compound: CN(C)CCCN=Cc1ccc(O)cc1O.CN(C)CCCN=Cc1ccc(O)cc1O.[Ni+2]
- T/C (dose: 6.25 mg/kg/injection, schedule: Q01DX009 (ip), vehicle: saline with Tween-80): 95 % of control
- T/C (dose: 12.5 mg/kg/injection, schedule: Q01DX009 (ip), vehicle: saline with Tween-80): 95 % of control
- T/C (dose: 12.5 mg/kg/injection, schedule: Q04DX003 (ip), vehicle: saline with Tween-80): 117 % of control
- T/C [1]: 92 % of control
- T/C (dose: 25.0 mg/kg/injection, schedule: Q04DX003 (ip), vehicle: saline with Tween-80): 86 % of control

Compound: COc1cc(C)c2c(=O)c3c(oc2c1)C(=O)c1c(O)c(OC)cc(O)c1C3=O
- T/C [1]: 105 % of control
- T/C [2]: 101 % of control
- T/C [3]: 96 % of control
- T/C [4]: 100 % of control

Compound: Cc1ccc(C)c(NC(=O)Nc2cccc(Cl)c2)c1
- T/C [5]: 102 % of control
- T/C [6]: 100 % of control

Compound: COC(=O)CNC(=O)C(NC(=O)C1CCCN1C(=O)OCc1ccccc1)C(C)C (stereo not drawn) (Cbz-Pro-Val-Gly-OMe; configuration not given here)
- T/C [2]: 91 % of control
- T/C [3]: 88 % of control

Compound: CCOC(=O)C(CC)c1ccccc1 (configuration not stated)
- T/C [2]: 91 % of control
- T/C [3]: 95 % of control

Compound: Cc1cccc(C)c1NS(=O)(=O)c1ccccc1
- T/C [6]: 87 % of control
- T/C (dose: 400.0 mg/kg/injection, schedule: Q01DX009 (ip), vehicle: Klucel (hydroxypropylcellulose) (HPC)): 92 % of control

Compound: Cn1c(O)c(/C=C2\C=Nc3ccccc32)n(C)c1=N
- T/C [7]: 96 % of control
- T/C [8]: 100 % of control
- T/C [9]: 101 % of control
- T/C [5]: 97 % of control

Compound: Cc1c2cccc(F)c2c[n+]2ccccc12
- T/C (dose: 6.25 mg/kg/injection, schedule: Q01DX009 (ip), vehicle: Klucel (hydroxypropylcellulose) (HPC)): 100 % of control
- T/C [7]: 100 % of control
- T/C [8]: 106 % of control

Compound: O=[N+]([O-])c1cc(C(F)(F)F)ccc1F
- T/C [7]: 101 % of control
- T/C [8]: 109 % of control
- T/C [9]: 109 % of control
- T/C [5]: 108 % of control

Compound: CC/C(=C\c1cccc([N+](=O)[O-])c1)C(=O)O
- T/C (dose: 100.0 mg/kg/injection, schedule: Q04DX003 (ip), vehicle: Klucel (hydroxypropylcellulose) (HPC)): 94 % of control
- T/C (dose: 200.0 mg/kg/injection, schedule: Q04DX003 (ip), vehicle: Klucel (hydroxypropylcellulose) (HPC)): 94 % of control
- T/C (dose: 400.0 mg/kg/injection, schedule: Q04DX003 (ip), vehicle: Klucel (hydroxypropylcellulose) (HPC)): 91 % of control

Compound: Nc1ccc(N=Nc2ccc(S(=O)(=O)O)cc2)cc1
- T/C [1]: 93 % of control
- T/C [2]: 97 % of control
- T/C [3]: 90 % of control and 104 % of control
